Test results as given in patent US20250170141A1, “MRGPRX2 MODULATORS AND RELATED METHODS OF TREATMENT” (Escient Pharmaceuticals, Inc., priority 2023, published 2025).
pIC50: −log10 of the molar value.

Biological target: T1, human MRGPRX2 (Homo sapiens, UniProt Q96LB1)
T1 construct: expressed in transfected cells; host or cells: CHO cells, stably transfected (G418 and Hygromycin B selection)
T1 sequence (Q96LB1 1-330): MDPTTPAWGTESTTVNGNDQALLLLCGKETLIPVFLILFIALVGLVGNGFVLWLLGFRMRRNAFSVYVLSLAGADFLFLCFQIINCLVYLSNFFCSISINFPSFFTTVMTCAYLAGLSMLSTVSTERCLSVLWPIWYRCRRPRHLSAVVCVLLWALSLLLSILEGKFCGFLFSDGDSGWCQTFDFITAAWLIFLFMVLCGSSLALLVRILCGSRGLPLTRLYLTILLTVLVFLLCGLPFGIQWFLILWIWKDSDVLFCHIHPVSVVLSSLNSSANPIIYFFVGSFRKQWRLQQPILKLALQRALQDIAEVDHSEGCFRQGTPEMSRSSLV
Experiment: MRGPRX2 activity: IP-One Gq HTRF assay in CHO cells, antagonism versus 0.3 uM Cortistatin-14
Assay type: cell-based
Details: versus 0.3 uM Cortistatin-14 agonist, CHO cells expressing human MRGPRX2, read-out: MRGPRX2 Antagonist Activity
Outline: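 Antagonist IC50 was derived from the HTRF IP-1 signal after co-addition of compounds (10 points, top 30 uM, 3-fold steps) and 0.3 μM Cortistatin-14 agonist to human MRGPRX2-expressing CHO cells. Assay buffer contained 50 mM LiCl, pH 8; plates sat 1 h at 37 °C, then 1 h at room temperature.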

Compound	pIC50
Cc1c(F)cccc1CNC1=NS(=O)(=O)c2ccc(F)c(Oc3ccccc3Cl)c2N1 [Compound 1-24, 5-(2-chlorophenoxy)-6-fluoro-3-((3-fluoro-2-methylbenzyl)amino)-4H-benzo[e][1,2,4]thiadiazine 1,1-dioxide]	> 7.00
Cc1cccnc1CNC1=NS(=O)(=O)c2cccc(Cc3ccccc3Cl)c2N1 [Compound 12-21, 5-(2-chlorobenzyl)-3-(((3-methylpyridin-2-yl)methyl)amino)-4H-benzo[e][1,2,4]thiadiazine 1,1-dioxide]	> 7.00
O=C(c1ccccc1Cl)c1cccc2c1NC(NCc1ncccc1C(F)(F)F)=NS2(=O)=O [Compound 16-4, (2-chlorophenyl)(1,1-dioxido-3-(((3-(trifluoromethyl)pyridin-2-yl)methyl)amino)-4H-benzo[e][1,2,4]thiadiazin-5-yl)methanone]	> 7.00
O=S1(=O)N=C(NCc2ncccc2F)Nc2c1cc(F)c(F)c2Cc1ccccc1Cl [Compound 4-5, 5-(2-chlorobenzyl)-6,7-difluoro-3-(((3-fluoropyridin-2-yl)methyl)amino)-4H-benzo[e][1,2,4]thiadiazine 1,1-dioxide]	6.30 to 7.00
CCC(c1ccccc1F)c1cccc2c1NC(NCc1ncccc1F)=NS2(=O)=O (centres unmarked) [Compound 21-1, 5-(1-(2-fluorophenyl)propyl)-3-(((3-fluoropyridin-2-yl)methyl)amino)-4H-benzo[e][1,2,4]thiadiazine 1,1-dioxide]	> 7.00
Cc1nn(C)cc1C(C)c1c(F)ccc2c1NC(NCc1cccc(F)c1)=NS2(=O)=O (centres unmarked) [Compound 22-19, 5-(1-(1,3-dimethyl-1H-pyrazol-4-yl)ethyl)-6-fluoro-3-((3-fluorobenzyl)amino)-4H-benzo[e][1,2,4]thiadiazine 1,1-dioxide]	> 7.00
CC(c1nccs1)c1c(F)ccc2c1NC(NCc1cccc(F)c1)=NS2(=O)=O (centres unmarked) [Compound 22-11, 6-fluoro-3-((3-fluorobenzyl)amino)-5-(1-(thiazol-2-yl)ethyl)-4H-benzo[e][1,2,4]thiadiazine 1,1-dioxide]	> 7.00
O=S1(=O)N=C(NCc2ccccc2F)Nc2c1ccc(F)c2Cc1ccccc1Cl [Compound 4-4, 5-(2-chlorobenzyl)-6-fluoro-3-((2-fluorobenzyl)amino)-4H-benzo[e][1,2,4]thiadiazine 1,1-dioxide]	6.30 to 7.00
COc1cc(F)ccc1CNC1=NS(=O)(=O)c2cccc(Cc3ccccc3Cl)c2N1 [Compound 12-9, 5-(2-chlorobenzyl)-3-((4-fluoro-2-methoxybenzyl)amino)-4H-benzo[e][1,2,4]thiadiazine 1,1-dioxide]	> 7.00
[2H]C([2H])(NC1=NS(=O)(=O)c2ccc(F)c(Oc3ccccc3Cl)c2N1)c1ccccc1 [Compound 1-44, 5-(2-chlorophenoxy)-6-fluoro-3-((phenylmethyl-d2)amino)-4H-benzo[e][1,2,4]thiadiazine 1,1-dioxide]	6.30 to 7.00
O=C(c1ccccc1Cl)c1cccc2c1NC(NCc1ncccc1Cl)=NS2(=O)=O [Compound 16-1, (2-chlorophenyl)(3-(((3-chloropyridin-2-yl)methyl)amino)-1,1-dioxido-4H-benzo[e][1,2,4]thiadiazin-5-yl)methanone]	> 7.00
C=C(c1ccccc1F)c1cccc2c1NC(NCc1ncccc1Cl)=NS2(=O)=O [Compound 13-1, 3-(((3-chloropyridin-2-yl)methyl)amino)-5-(1-(2-fluorophenyl)vinyl)-4H-benzo[e][1,2,4]thiadiazine 1,1-dioxide]	> 7.00
CC(c1ccccc1Cl)c1c(F)ccc2c1NC(NCc1ncccc1F)=NS2(=O)=O (centres unmarked) [Compound 8-1, 5-(1-(2-chlorophenyl)ethyl)-6-fluoro-3-(((3-fluoropyridin-2-yl)methyl)amino)-4H-benzo[e][1,2,4]thiadiazine 1,1-dioxide]	> 7.00
O=S1(=O)N=C(NCc2ncccc2F)Nc2c1ccc(F)c2Oc1ccc(Cl)cc1 [Compound 2-9, 5-(4-chlorophenoxy)-6-fluoro-3-(((3-fluoropyridin-2-yl)methyl)amino)-4H-benzo[e][1,2,4]thiadiazine 1,1-dioxide]	6.30 to 7.00
O=S1(=O)N=C(NCc2ncccc2Cl)Nc2c(/C=C/c3ccccc3F)cccc21 [Compound 14-1, (E)-3-(((3-chloropyridin-2-yl)methyl)amino)-5-(2-fluorostyryl)-4H-benzo[e][1,2,4]thiadiazine 1,1-dioxide]	> 7.00
CC(c1ccccc1F)c1c(F)ccc2c1NC(NCc1ccc(F)cc1F)=NS2(=O)=O (centres unmarked) [Compound 7-6, 3-((2,4-difluorobenzyl)amino)-6-fluoro-5-(1-(2-fluorophenyl)ethyl)-4H-benzo[e][1,2,4]thiadiazine 1,1-dioxide]	> 7.00

Compound	pIC50
O=S1(=O)N=C(NCc2ncccc2F)Nc2c1ccc(Cl)c2Oc1cccc(Cl)c1Cl [Compound 1-50, 6-chloro-5-(2,3-dichlorophenoxy)-3-(((3-fluoropyridin-2-yl)methyl)amino)-4H-benzo[e][1,2,4]thiadiazine 1,1-dioxide]	> 7.00
CC(C)(F)CNC1=NS(=O)(=O)c2cccc(Oc3ccccc3Cl)c2N1 [Compound 1-244, 5-(2-chlorophenoxy)-3-((2-fluoro-2-methylpropyl)amino)-4H-benzo[e][1,2,4]thiadiazine 1,1-dioxide]	5.60 to 6.00
Cc1ccc(CNC2=NS(=O)(=O)c3cccc(Cc4ccccc4Cl)c3N2)c(F)c1 [Compound 12-6, 5-(2-chlorobenzyl)-3-((2-fluoro-4-methylbenzyl)amino)-4H-benzo[e][1,2,4]thiadiazine 1,1-dioxide]	> 7.00
C=C(c1ccccc1F)c1c(F)ccc2c1NC(NCc1ncccc1F)=NS2(=O)=O [Compound 13-3, 6-fluoro-5-(1-(2-fluorophenyl)vinyl)-3-(((3-fluoropyridin-2-yl)methyl)amino)-4H-benzo[e][1,2,4]thiadiazine 1,1-dioxide]	> 7.00
COCCNC1=NS(=O)(=O)c2cccc(C(=O)c3ccccc3Cl)c2N1 [Compound 16-3, (2-chlorophenyl)(3-((2-methoxyethyl)amino)-1,1-dioxido-4H-benzo[e][1,2,4]thiadiazin-5-yl)methanone]	5.60 to 6.00
[2H]c1ccc2c(c1[C@H](C)c1ccccc1F)NC(NCc1ncccc1F)=NS2(=O)=O [Compound 23-1, (S)-5-(1-(2-fluorophenyl)ethyl)-3-(((3-fluoropyridin-2-yl)methyl)amino)-4H-benzo[e][1,2,4]thiadiazine 1,1-dioxide-6-d]	> 7.00
COc1ccc(Oc2c(F)ccc3c2NC(NCc2ncccc2F)=NS3(=O)=O)cc1 [Compound 2-11, 6-fluoro-3-(((3-fluoropyridin-2-yl)methyl)amino)-5-(4-methoxyphenoxy)-4H-benzo[e][1,2,4]thiadiazine 1,1-dioxide]	5.60 to 6.00
O=S1(=O)N=C(NCc2ncccc2F)Nc2c(Oc3ccccc3Cl)c(F)cc(Cl)c21 [Compound 1-41, 8-chloro-5-(2-chlorophenoxy)-6-fluoro-3-(((3-fluoropyridin-2-yl)methyl)amino)-4H-benzo[e][1,2,4]thiadiazine 1,1-dioxide]	6.30 to 7.00
O=S1(=O)N=C(NCc2cccc3ccccc23)Nc2c1ccc(F)c2Oc1ccccc1Cl [Compound 2-6, 5-(2-chlorophenoxy)-6-fluoro-3-((naphthalen-1-ylmethyl)amino)-4H-benzo[e][1,2,4]thiadiazine 1,1-dioxide]	6.30 to 7.00
O=S1(=O)N=C(NCc2ncccc2F)Nc2c1ccc(F)c2Oc1ccccc1F [Compound 1-15, 6-fluoro-5-(2-fluorophenoxy)-3-(((3-fluoropyridin-2-yl)methyl)amino)-4H-benzo[e][1,2,4]thiadiazine 1,1-dioxide]	6.30 to 7.00
CC(c1ccc2c(c1)CCCC2)c1c(F)ccc2c1NC(NCc1cccc(F)c1)=NS2(=O)=O (centres unmarked) [Compound 22-9, 6-fluoro-3-((3-fluorobenzyl)amino)-5-(1-(5,6,7,8-tetrahydronaphthalen-2-yl)ethyl)-4H-benzo[e][1,2,4]thiadiazine 1,1-dioxide]	6.30 to 7.00
COc1cccc(Cc2cccc3c2NC(NCc2ccccc2F)=NS3(=O)=O)c1 [Compound 6-9, 3-((2-fluorobenzyl)amino)-5-(3-methoxybenzyl)-4H-benzo[e][1,2,4]thiadiazine 1,1-dioxide]	> 7.00
CC(c1ccc(Oc2ccccc2)cc1)c1c(F)ccc2c1NC(NCc1cccc(F)c1)=NS2(=O)=O (centres unmarked) [Compound 22-15, 6-fluoro-3-((3-fluorobenzyl)amino)-5-(1-(4-phenoxyphenyl)ethyl)-4H-benzo[e][1,2,4]thiadiazine 1,1-dioxide]	6.00 to 6.30
COc1ccccc1CNC1=NS(=O)(=O)c2ccc(F)c(Oc3ccccc3Cl)c2N1 [Compound 1-31, 5-(2-chlorophenoxy)-6-fluoro-3-((2-methoxybenzyl)amino)-4H-benzo[e][1,2,4]thiadiazine 1,1-dioxide]	6.30 to 7.00
O=S1(=O)N=C(NCc2ncccc2C(F)(F)F)Nc2c(Cc3ccccc3Cl)cccc21 [Compound 12-29, 5-(2-chlorobenzyl)-3-(((3-(trifluoromethyl)pyridin-2-yl)methyl)amino)-4H-benzo[e][1,2,4]thiadiazine 1,1-dioxide]	> 7.00
O=S1(=O)N=C(NCc2ncccc2O)Nc2c1ccc(F)c2Oc1ccccc1Cl [Compound 1-37, 5-(2-chlorophenoxy)-6-fluoro-3-(((3-hydroxypyridin-2-yl)methyl)amino)-4H-benzo[e][1,2,4]thiadiazine 1,1-dioxide]	< 5.60
